Measurements from patent US6387938B1, “Benzimidazole derivatives” (Mochida Pharmaceutical Co., Ltd., priority 1996, dated 2002).

Columns and labels:
[1] = tested on: BALB/c male mice; assay: Toxicity test in mice, repeated oral dosing; format: in vivo
[2] = tested on: SD female rats; assay: Toxicity test in rats, 14 days oral dosing; format: in vivo; details: 0.5% HPMC suspension, 300 mg/kg/day for 14 days
Procedure: SD female rats were orally treated with the compounds of Inventive Examples 54 and 55 suspended in 0.5% aqueous solution of HPMC at a dose of 300 mg/kg/day for 14 days.

[3] = Hydrolysis of the ester bond in the rat; format: in vivo
[4] = tested on: intraperitoneal eosinophilia; assay: Action on intraperitoneal eosinophilia model mice; format: in vivo, BALB/c male mice; details: BALB/c mice sensitized with swine roundworm extract; oral once a day, 10 times; dose 10 mg/kg/day
Procedure: Using five animals per group of BALB/c male mice (about 25 g in body weight), 0.11 mL of physiological saline containing 0.1 mg of swine roundworm extract was administered into the peritoneal cavity of each mouse to sensitize. The same treatment was repeated 7 days after the administration and, 3 days thereafter, each animal was sacrificed by phlebotomy, 3 mL of physiological saline containing 1% dipotassium ethylenediaminetetraacetate (EDTA) was administered by intraperitoneal injection and its abdominal region was massaged for about 30 seconds. […] A portion of the cell suspension was daubed on a slide glass using a spinner to carry out Diff-Quik staining, and then total leukocytes and eosinophils were counted to calculate the ratio of eosinophils in the total leukocytes. The number of total leukocytes in the cell suspension was measured using an automatic blood cell counter. The number of eosinophils in the cell suspension was calculated by multiplying the ratio of eosinophils in the total leukocytes by the number of total leukocytes. […] The dose of each compound to be tested and the intraperitoneal eosinophilia inhibition rate calculated by the following formula are shown in Table 1. […]

[5] = tested on: IFN-γ production of the spleen cell; assay: Action of IFN-γ production enhancement in tumor-bearing mouse; format: in vivo; details: B16F10 tumor-bearing C57BL/6 mouse, oral day 7 to day 21, spleen cells cultivated 24 hours with no stimulation, EIA, N = 7
Procedure: B16F10 cells cultivated in DMEM (Dulbecco's medium) supplemented with 10% FCS (fetal calf serum) were treated with trypsin, washed with PBS (phosphate buffered saline, pH 7.4), and adjusted in PBS to 1×10^7 cells/ml. The cells were subcutaneously injected in the abdomen of male C57BL/6 mouse (7 week old; body weight, about 23 g) at a dose of 0.1 ml/mouse. The day of tumor inoculation was designated day 0, and the tumor diameter was measured at day 7 with a vernier caliper. The tumor volume was calculated in terms of (minor diameter)^2×(major diameter), and the mice were grouped by using this value and the body weight for the indexes. […] The test compound was orally administered from day 7 to day 21. The solvent used was 0.5% HPMC (Hydroxy propyl methyl cellurose), and the control group was administered only with the solvent. At day 22, the mice were decapitated and the spleens were removed. After weighing the organs, the spleen was homogenized with a glass homogenizer, adjusted to 5×10^6 cells/ml, and cultivated in S-Clone SF-B medium (Sanko Pure Chemicals). The culture supernatant was collected after 24 hours, and […] at −80° C. The supernatant was measured for its IFN-γ concentration (pg/mL) by EIA (Enzyme Immunoassay). The measurement was conducted with an assay kit of ENDOGEN.

[6] = 5% acacia suspension, 100 mg/kg/day for 7 days, observed for 3 days after administration
[7] = 0.5% HPMC suspension, 100 mg/kg/day for 4 days

Row | Compound | Abnormality in body weight and general symptoms [1, 6] | Mortality [1, 6] | Abnormality in body weight and general symptoms [1, 7] | Mortality [1, 7] | other results
1 | CCOC(=O)CC(=O)c1cccc2c1nc(CCc1ccccc1)n2C [compound 10] | no abnormality | no mortal case |  |  | 
2 | CCOC(=O)CC(O)c1cccc2nc(CCc3ccccc3)[nH]c12 (stereo not drawn) [compound 55] |  |  | no abnormality | No mortal case | Relative liver weight [2]: no such increase; Ester bond hydrolysis to generate carboxyl group [3]: hydrolyzed
3 | COC(=O)CC(O)c1cccc2nc(CCc3ccccc3)[nH]c12 (stereo not drawn) [compound 5] | no abnormality | no mortal case |  |  | 
4 | CCOC(=O)CC(=O)c1cccc2nc(CCc3ccccc3)[nH]c12 [compound 3] |  |  |  |  | Intraperitoneal eosinophilia inhibition rate (%) [4]: 67%
5 | COC(=O)CC(=O)c1cccc2nc(CCc3ccccc3)[nH]c12 [compound 2] | no abnormality | no mortal case |  |  | 
6 | CCOC(=O)CC(O)c1cccc2nc(CCc3ccccc3)[nH]c12 (stereo not drawn) [compound 54] |  |  | no abnormality | No mortal case | Relative liver weight [2]: significant increase; Ester bond hydrolysis to generate carboxyl group [3]: hydrolyzed
7 | CCOC(=O)CC(O)c1cccc2nc(CCc3ccccc3)[nH]c12 (stereo not drawn) [compound 6] |  |  | no abnormality | No mortal case | IFN-γ concentration ([5]; dose 10 mg/kg/day): 125 pg/mL; IFN-γ concentration ([5]; dose 30 mg/kg/day): 194 pg/mL; IFN-γ concentration ([5]; dose 100 mg/kg/day): 263 pg/mL
8 | O=C(O)CC(=O)c1cccc2nc(CCc3ccccc3)[nH]c12 [compound 1] | no abnormality | no mortal case |  |  | 
9 | O=C(O)CC(O)c1cccc2nc(CCc3ccccc3)[nH]c12 (stereo not drawn) |  |  |  |  | melting point: 103 to 105.3 °C
10 | O=C(O)CC(O)c1cccc2nc(CCc3ccccc3)[nH]c12 (stereo not drawn) [compound 7] | no abnormality | no mortal case | no abnormality | No mortal case | 
